Results from ChEMBL document CHEMBL5625175, “Quinazoline-based VEGFR-2 inhibitors as potential anti-angiogenic agents: A contemporary perspective of SAR and molecular docking studies” (Eur J Med Chem, 2023).
Values belong to the molecule of their own block, whether it stands above or below them.

Experiments:
[1] = target: T1, Vascular endothelial growth factor receptor 2 (Homo sapiens, UniProt P35968); test: Inhibition of VEGF-induced human VEGFR2 autophosphorylation expressed in HUVEC cells measured after 2 hrs by chemiluminescence assay; format: cell-based
T1 sequence (P35968 whole entry): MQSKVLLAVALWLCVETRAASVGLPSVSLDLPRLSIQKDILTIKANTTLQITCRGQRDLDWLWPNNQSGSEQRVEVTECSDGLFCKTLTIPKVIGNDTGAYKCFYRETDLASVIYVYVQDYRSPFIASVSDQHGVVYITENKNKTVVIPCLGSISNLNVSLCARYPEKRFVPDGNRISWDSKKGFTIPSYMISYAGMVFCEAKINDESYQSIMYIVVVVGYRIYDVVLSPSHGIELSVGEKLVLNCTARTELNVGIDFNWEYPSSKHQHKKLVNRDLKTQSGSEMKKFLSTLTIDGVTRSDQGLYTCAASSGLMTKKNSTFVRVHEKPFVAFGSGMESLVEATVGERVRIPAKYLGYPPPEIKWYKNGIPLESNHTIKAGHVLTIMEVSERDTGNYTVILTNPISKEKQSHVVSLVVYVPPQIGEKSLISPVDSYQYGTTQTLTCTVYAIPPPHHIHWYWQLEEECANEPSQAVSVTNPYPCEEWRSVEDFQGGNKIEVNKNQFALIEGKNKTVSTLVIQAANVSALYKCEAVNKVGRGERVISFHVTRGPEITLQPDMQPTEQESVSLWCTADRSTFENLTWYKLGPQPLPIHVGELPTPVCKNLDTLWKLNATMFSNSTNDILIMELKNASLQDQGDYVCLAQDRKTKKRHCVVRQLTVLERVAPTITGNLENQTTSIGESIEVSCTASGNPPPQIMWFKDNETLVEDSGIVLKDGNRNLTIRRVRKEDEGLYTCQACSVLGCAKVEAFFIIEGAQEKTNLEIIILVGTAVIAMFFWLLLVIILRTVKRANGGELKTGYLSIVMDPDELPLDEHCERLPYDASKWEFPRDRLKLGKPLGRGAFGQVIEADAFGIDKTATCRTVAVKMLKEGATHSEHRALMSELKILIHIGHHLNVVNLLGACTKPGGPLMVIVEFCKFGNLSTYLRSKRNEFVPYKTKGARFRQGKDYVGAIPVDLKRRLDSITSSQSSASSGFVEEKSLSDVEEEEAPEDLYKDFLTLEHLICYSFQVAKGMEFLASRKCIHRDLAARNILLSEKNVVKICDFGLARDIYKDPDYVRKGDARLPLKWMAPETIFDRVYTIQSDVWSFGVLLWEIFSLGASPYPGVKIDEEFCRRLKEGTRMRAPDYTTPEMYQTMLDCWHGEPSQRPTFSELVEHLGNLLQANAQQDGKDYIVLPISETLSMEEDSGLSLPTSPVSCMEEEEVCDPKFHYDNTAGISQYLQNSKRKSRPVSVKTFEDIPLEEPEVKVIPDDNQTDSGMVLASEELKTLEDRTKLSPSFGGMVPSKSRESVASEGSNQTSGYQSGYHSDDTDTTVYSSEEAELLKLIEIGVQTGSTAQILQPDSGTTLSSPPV

[2] = target: Receptor-type tyrosine-protein kinase FLT3 (Homo sapiens) (UniProt P36888); test: Inhibition of FLT-3 (unknown origin) at 10 uM relative to control
Receptor-type tyrosine-protein kinase FLT3 (Homo sapiens), sequence (P36888 whole entry): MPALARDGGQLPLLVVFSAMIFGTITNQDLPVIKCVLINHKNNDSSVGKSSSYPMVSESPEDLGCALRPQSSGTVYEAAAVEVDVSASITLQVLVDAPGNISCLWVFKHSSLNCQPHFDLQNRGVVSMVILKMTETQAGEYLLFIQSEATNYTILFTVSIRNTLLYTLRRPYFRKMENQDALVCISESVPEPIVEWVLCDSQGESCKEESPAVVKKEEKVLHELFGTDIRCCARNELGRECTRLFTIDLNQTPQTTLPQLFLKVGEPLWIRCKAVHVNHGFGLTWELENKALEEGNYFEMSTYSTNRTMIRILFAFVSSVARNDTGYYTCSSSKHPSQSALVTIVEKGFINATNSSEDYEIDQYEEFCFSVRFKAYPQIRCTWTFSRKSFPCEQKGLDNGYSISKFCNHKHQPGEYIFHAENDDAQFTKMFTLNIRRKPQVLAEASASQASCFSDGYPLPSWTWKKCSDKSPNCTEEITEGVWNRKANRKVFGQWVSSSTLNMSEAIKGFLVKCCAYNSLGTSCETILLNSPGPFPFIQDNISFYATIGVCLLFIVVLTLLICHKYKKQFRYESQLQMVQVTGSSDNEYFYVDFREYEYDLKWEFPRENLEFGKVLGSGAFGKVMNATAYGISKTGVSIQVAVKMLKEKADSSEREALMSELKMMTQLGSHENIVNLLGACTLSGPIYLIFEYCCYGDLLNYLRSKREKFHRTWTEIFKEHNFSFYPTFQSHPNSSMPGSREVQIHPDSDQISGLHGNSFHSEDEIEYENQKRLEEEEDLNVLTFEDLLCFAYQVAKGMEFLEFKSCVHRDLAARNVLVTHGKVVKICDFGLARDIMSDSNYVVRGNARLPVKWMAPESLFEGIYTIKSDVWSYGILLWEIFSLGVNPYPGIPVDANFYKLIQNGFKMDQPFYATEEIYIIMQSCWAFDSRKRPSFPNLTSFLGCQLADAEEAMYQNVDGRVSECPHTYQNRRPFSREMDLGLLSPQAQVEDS

HepG2 [3] = test: Antitumor activity against human HepG2 cells xenografted in athymic nu/nu mouse assessed as tumor growth inhibition at 100 mg/kg, ip administered once daily relative to control; format: functional; set-up: scale not given: the % may be the effect or the level left
MCF7 = test: Antitumor activity against human MCF7 cells assessed as reduction in cell growth incubated for 48 hrs by MTT assay; format: functional, cell-based; details: MCF7, 48 h
HepG2 [4] = test: Antitumor activity against human HepG2 cells assessed as reduction in cell growth incubated for 48 hrs by MTT assay; format: functional, cell-based; details: HepG2, 48 h
PC-3 = test: Antitumor activity against human PC-3 cells assessed as reduction in cell growth incubated for 48 hrs by MTT assay; format: functional, cell-based; details: PC-3, 48 h
[5] = target: T1, Vascular endothelial growth factor receptor 2; test: Inhibition of VEGFR-2 (unknown origin) using poly-Glu-Ala-Tyr-biotin as substrate pre-incubated for 10 mins followed by substrate addition and measured after 30 mins by HTRF method
[6] = target: Vascular endothelial growth factor receptor 1 (Homo sapiens, UniProt P17948); test: Inhibition of VEGFR1 (unknown origin) by FRET based Z-LYTE kinase assay
Vascular endothelial growth factor receptor 1, sequence (P17948 whole entry): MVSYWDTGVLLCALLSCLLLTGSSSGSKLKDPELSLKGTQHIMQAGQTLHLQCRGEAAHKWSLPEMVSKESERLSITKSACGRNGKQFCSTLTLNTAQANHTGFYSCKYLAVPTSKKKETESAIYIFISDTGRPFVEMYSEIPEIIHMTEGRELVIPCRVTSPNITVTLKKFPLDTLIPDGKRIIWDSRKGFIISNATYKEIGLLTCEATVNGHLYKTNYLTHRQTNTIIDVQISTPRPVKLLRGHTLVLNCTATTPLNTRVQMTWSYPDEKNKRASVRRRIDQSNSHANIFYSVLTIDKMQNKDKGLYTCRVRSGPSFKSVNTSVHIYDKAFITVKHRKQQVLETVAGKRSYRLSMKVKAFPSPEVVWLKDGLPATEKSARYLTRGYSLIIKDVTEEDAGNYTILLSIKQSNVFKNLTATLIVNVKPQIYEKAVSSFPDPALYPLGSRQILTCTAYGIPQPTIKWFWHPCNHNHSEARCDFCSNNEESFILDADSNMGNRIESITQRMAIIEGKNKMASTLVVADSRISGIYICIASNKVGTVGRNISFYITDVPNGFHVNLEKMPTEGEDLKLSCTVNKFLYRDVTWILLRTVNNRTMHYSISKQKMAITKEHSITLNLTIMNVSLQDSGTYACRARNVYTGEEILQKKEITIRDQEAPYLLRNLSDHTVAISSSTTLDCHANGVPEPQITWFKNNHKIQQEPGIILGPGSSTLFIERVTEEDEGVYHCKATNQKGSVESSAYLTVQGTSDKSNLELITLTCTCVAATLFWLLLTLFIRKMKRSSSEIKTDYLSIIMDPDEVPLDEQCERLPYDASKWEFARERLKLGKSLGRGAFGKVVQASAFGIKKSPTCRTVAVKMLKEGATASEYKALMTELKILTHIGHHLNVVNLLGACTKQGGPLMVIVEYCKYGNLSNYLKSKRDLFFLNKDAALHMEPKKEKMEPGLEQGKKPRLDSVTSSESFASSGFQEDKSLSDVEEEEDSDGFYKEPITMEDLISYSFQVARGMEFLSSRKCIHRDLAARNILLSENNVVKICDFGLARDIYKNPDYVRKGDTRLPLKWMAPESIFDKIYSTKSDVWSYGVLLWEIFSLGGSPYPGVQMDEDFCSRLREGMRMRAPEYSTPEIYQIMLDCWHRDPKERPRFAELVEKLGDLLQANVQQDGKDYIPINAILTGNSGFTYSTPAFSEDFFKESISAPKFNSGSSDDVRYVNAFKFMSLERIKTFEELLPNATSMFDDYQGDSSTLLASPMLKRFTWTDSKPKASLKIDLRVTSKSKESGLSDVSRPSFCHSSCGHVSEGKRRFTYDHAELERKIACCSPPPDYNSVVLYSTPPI

- IC50 [1]: 11.9 µM
- inhibition [2]: 91%
Compound: COc1cc2ncnc(Sc3nnc(C)s3)c2cc1OC
- Activity (HepG2 [3]): 60%

- IC50 (MCF7): 33.4 µM
- IC50 (HepG2 [4]): 24.1 µM
- IC50 (PC-3): 40.9 µM
Compound: O=C(Nc1ccc(Oc2nc(Cl)nc3ccccc23)cc1)c1cccnc1

- IC50 [5]: 0.017 µM
Compound: COc1cc2ncnc(Nc3ccncc3C(=O)NCc3cccs3)c2cc1OC

- IC50 [6]: 0.0121 µM
Compound: CNC(=O)c1nc(Nc2ccc(NC(=O)Nc3cccc(C)c3)cc2)c2ccccc2n1
